Values belong to the molecule of their own block, whether it stands above or below them.
Tests used:
Assay type in all cases: physicochemical
[1] = HPLC of CHA extracted from co-extruded 7Fr single lumen tubing
Protocol: […] Co-extruded tubing was also analyzed for chlorhexidine degradants.
(§1) Chlorhexidine diacetate content of the prepared samples was extracted with 1:1 tetrahydrofuran (THF): H2O and analyzed on the Agilent Eclipse XDB-CN 5u 4.6×150 mm column with guard column. Briefly, 2 centimeter (cm) sample segments were extracted with 5 mL of THF and 5 mL of H2O, vortexed, and centrifuged. HPLC analysis was run on an Agilent Eclipse XDB-CN 5u 4.6×150 mm column and 4.6×12.5 mm Eclipse XDB-CN guard column, with a mixture of deionized water, acetonitrile, and trifluoroacetic acid as the mobile phase. Concentrations of the analytes were determined via calibration curves.

[2] = HPLC of chlorhexidine diacetate extracted from Tecothane-2095A compounded resin (thermal degradation on melt processing); conditions: for 4.1 peak (CHA) / RRT 0.6 (degradant) / RRT 1.3 (degradant) / RRT 1.6 (degradant): Tecothane-2095A compounded resin
Excerpt: Tecothane®-2095A was coated with 5% w/w polytetramethyleneoxide (PTMO) of molecular weight (MW)=1000 by mixing 45.1 gram (g) of PTMO with 900g Tecothane®-2095A. The PTMO coated resin and chlorhexidine diacetate were separately fed into an 18 millimeter (mm) Leistritz twin screw intermeshing extruder (Somerville, N.J.) from K-Tron feeders (Pitman, N.J.) at rates of 2.5 kilograms per hour (kg/hr) and 0.25 kg/hr, respectively. The extruder was set at 112 revolutions per minute (rpm) for screw speed and the barrel zone temperatures were set from 145° C. thru 178° C. The extrudate was pelletized into small pellets.
as §1
(§2) In addition to the experimental conditions described with reference to FIG. 2, chlorhexidine diacetate compounded in Tecothane 2095A was subjected to melt temperatures ranging from about 139° C. to about 172° C. and the concentration of the analytes was determined via a calibration curve as described in the following Table 1.

[3] = HPLC of chlorhexidine diacetate extracted from low melt temperature Tecoflex-93A compounded resin; conditions: for 4.289 peak (CHA) / RRT 0.6 (degradant) / RRT 1.3 (degradant) / RRT 1.6 (degradant): low melt temperature (LMT) Tecoflex-93A
Protocol: Low melting temperature Tecoflex-93A and chlorhexidine diacetate were separately fed into al 8 mm Leistritz twin screw intermeshing extruder from K-tron feeders at rates of 1 kg/hr and 0.1 kg/hr, respectively. The barrel zone temperatures were set at 121° C. for all zones. The extrudate was pelletized into small pellets.
as §1
as §2, with “3,” for “2,”, “low melt temperature Tecoflex-93A” for “Tecothane 2095A”, “131°” for “139°”, “137°” for “172°”, “The” for “and the”, “2.” for “1.”

[4] = HPLC of CHA extracted from PVC compounded resin
Protocol: Separate samples of polyvinyl chloride (shore 65A and shore 85A respectively) and chlorhexidine diacetate were separately fed into an 18 mm Leistritz twin screw intermeshing extruder from K-tron feeders at rates of 2.0 kg/hr and 0.2 kg/hr, respectively. The barrel zone temperatures were set from 140° C. thru 155° C. The extrudate was pelletized into small pellets.
as §1
as §2, with “7,” for “2,”, “polyvinyl chloride (Shore A hardness of […] & 85)” for “Tecothane 2095A”, “145°” for “139°”, “176°” for “172°”, “The” for “and the”, “6.” for “1.”

[5] = HPLC of CHA extracted from Versaflex CL30 compounded resin; conditions: for 4.1 peak (CHA) / RRT 0.6 (degradant) / RRT 1.3 (degradant) / RRT 1.6 (degradant): Versaflex CL30 compounded resin
Protocol: Versaflex® CL30 and chlorhexidine diacetate were separately fed into an 18 mm Leistritz twin screw intermeshing extruder from K-tron feeders at rates of 2.5 kg/hr and 0.25 kg/hr, respectively. The barrel zone temperatures were set from 131° C. thru 148° C. The extrudate was pelletized into small pellets.
as §1

[6] = HPLC of chlorhexidine dodecanoate extracted from LMT Tecoflex-93A compounded resin; conditions: for 4.289 peak (CHDD) / RRT 0.6 (degradant) / RRT 1.3 (degradant) / RRT 1.6 (degradant): LMT Tecoflex-93A compounded resin
[7] = co-extruded 7Fr single lumen, melt temp 135 °C (condition 1)
[8] = PVC 60A compounded resin, melt temp 145 °C (condition 1)
[9] = PVC 60A compounded resin, melt temp 154 °C (condition 2)
[10] = PVC 60A compounded resin, melt temp 159 °C (condition 3)
[11] = PVC 60A compounded resin, melt temp 165 °C (condition 4)
[12] = PVC 60A compounded resin, melt temp 171 °C (condition 5)
[13] = PVC 85A compounded resin, melt temp 155 °C (condition 1)
[14] = PVC 85A compounded resin, melt temp 159 °C (condition 2)
[15] = PVC 85A compounded resin, melt temp 163 °C (condition 3)
[16] = PVC 85A compounded resin, melt temp 167 °C (condition 4)
[17] = PVC 85A compounded resin, melt temp 170 °C (condition 5)
[18] = PVC 85A compounded resin, melt temp 176 °C (condition 6)

- 4.289 peak (CHA) [1, 7]: 100
- RRT 0.6 (degradant) [1, 7]: Not detected
- RRT 1.3 (degradant) [1, 7]: Not detected
- RRT 1.6 (degradant) [1, 7]: Not detected
- stable processing temperature limit ([1]; with polyurethanes, from Table 4 (co-extruded 7Fr single lumen)): at least 135 °C
- 4.1 peak (CHA) ([2]; melt temp 139 °C (condition 1)): 89%
- RRT 0.6 (degradant) ([2]; melt temp 139 °C (condition 1)): 3%
- RRT 1.3 (degradant) ([2]; melt temp 139 °C (condition 1)): 8%
- RRT 1.6 (degradant) ([2]; melt temp 139 °C (condition 1)): 1%
- 4.1 peak (CHA) ([2]; melt temp 142 °C (condition 2)): 88%
- RRT 0.6 (degradant) ([2]; melt temp 142 °C (condition 2)): 3%
- RRT 1.3 (degradant) ([2]; melt temp 142 °C (condition 2)): 8%
- RRT 1.6 (degradant) ([2]; melt temp 142 °C (condition 2)): 1%
- 4.1 peak (CHA) ([2]; melt temp 144 °C (condition 3)): 84%
- RRT 0.6 (degradant) ([2]; melt temp 144 °C (condition 3)): 4%
- RRT 1.3 (degradant) ([2]; melt temp 144 °C (condition 3)): 11%
- RRT 1.6 (degradant) ([2]; melt temp 144 °C (condition 3)): 1%
- 4.1 peak (CHA) ([2]; melt temp 172 °C (condition 4)): 77%
- RRT 0.6 (degradant) ([2]; melt temp 172 °C (condition 4)): 7%
- RRT 1.3 (degradant) ([2]; melt temp 172 °C (condition 4)): 13%
- RRT 1.6 (degradant) ([2]; melt temp 172 °C (condition 4)): 3%
- thermal degradation on melt processing (HPLC, FIG. 2) ([2]; compounded in Tecothane 2095A, melt temperature 164 °C, 280 nm): degrades into several products
- thermal degradation on melt processing (HPLC, FIG. 3) ([3]; compounded in low melt temperature Tecoflex-93A, melt temperature 136 °C, 280 nm): did not degrade
- 4.289 peak (CHA) ([3]; melt temp 131 °C (condition 1)): 100
- RRT 0.6 (degradant) ([3]; melt temp 131 °C (condition 1)): Not detected
- RRT 1.3 (degradant) ([3]; melt temp 131 °C (condition 1)): Not detected
- RRT 1.6 (degradant) ([3]; melt temp 131 °C (condition 1)): Not detected
- 4.289 peak (CHA) ([3]; melt temp 137 °C (condition 2)): 100
- RRT 0.6 (degradant) ([3]; melt temp 137 °C (condition 2)): Non-detected
- RRT 1.3 (degradant) ([3]; melt temp 137 °C (condition 2)): Not detected
- RRT 1.6 (degradant) ([3]; melt temp 137 °C (condition 2)): Not detected
- stable processing temperature limit ([3]; with polyurethanes): about 137 °C
- % Peak area (degradant) [4, 8]: Not detected
- % Peak area CHA [4, 8]: 100%
- % Peak area (degradant) [4, 9]: Not detected
- % Peak area CHA [4, 9]: 100%
- % Peak area (degradant) [4, 10]: Not detected
- % Peak area CHA [4, 10]: 100%
- % Peak area (degradant) [4, 11]: Not detected
- % Peak area CHA [4, 11]: 100%
- % Peak area (degradant) [4, 12]: 0.4%
- % Peak area CHA [4, 12]: 99.6%
- % Peak area (degradant) [4, 13]: Not detected
- % Peak area CHA [4, 13]: 100%
- % Peak area (degradant) [4, 14]: Not detected
- % Peak area CHA [4, 14]: 100%
- % Peak area (degradant) [4, 15]: Not detected
- % Peak area CHA [4, 15]: 100%
- % Peak area (degradant) [4, 16]: 0.4%
- % Peak area CHA [4, 16]: 99.6%
- % Peak area (degradant) [4, 17]: 0.3%
- % Peak area CHA [4, 17]: 99.7%
- % Peak area (degradant) [4, 18]: 0.7%
- % Peak area CHA [4, 18]: 99.3%
- thermal degradation on melt processing (HPLC, FIG. 5) ([4]; compounded in polyvinyl chloride (Shore A hardness of 65), melt temperature 145 °C, 280 nm): did not degrade
- thermal degradation on melt processing (HPLC, FIG. 6) ([4]; compounded in polyvinyl chloride (Shore A hardness of 85), melt temperature 155 °C, 280 nm): did not degrade
- amount of degradant generated (HPLC, FIG. 7) ([4]; compounded in polyvinyl chloride (Shore A hardness of 85), processed at 176 °C, 280 nm): less than 1%
- 4.1 peak (CHA) ([5]; melt temp 101 °C (condition 1)): 100
- RRT 0.6 (degradant) ([5]; melt temp 101 °C (condition 1)): Not detected
- RRT 1.3 (degradant) ([5]; melt temp 101 °C (condition 1)): Not detected
- RRT 1.6 (degradant) ([5]; melt temp 101 °C (condition 1)): Not detected
- 4.1 peak (CHA) ([5]; melt temp 121 °C (condition 2)): 100
- RRT 0.6 (degradant) ([5]; melt temp 121 °C (condition 2)): Not detected
- RRT 1.3 (degradant) ([5]; melt temp 121 °C (condition 2)): Not detected
- RRT 1.6 (degradant) ([5]; melt temp 121 °C (condition 2)): Not detected
- 4.1 peak (CHA) ([5]; melt temp 129 °C (condition 3)): 100
- RRT 0.6 (degradant) ([5]; melt temp 129 °C (condition 3)): Not detected
- RRT 1.3 (degradant) ([5]; melt temp 129 °C (condition 3)): Not detected
- RRT 1.6 (degradant) ([5]; melt temp 129 °C (condition 3)): Not detected
- 4.1 peak (CHA) ([5]; melt temp 139 °C (condition 4)): 100
- RRT 0.6 (degradant) ([5]; melt temp 139 °C (condition 4)): Not detected
- RRT 1.3 (degradant) ([5]; melt temp 139 °C (condition 4)): Not detected
- RRT 1.6 (degradant) ([5]; melt temp 139 °C (condition 4)): Not detected
- 4.1 peak (CHA) ([5]; melt temp 144 °C (condition 5)): 100
- RRT 0.6 (degradant) ([5]; melt temp 144 °C (condition 5)): Not detected
- RRT 1.3 (degradant) ([5]; melt temp 144 °C (condition 5)): Not detected
- RRT 1.6 (degradant) ([5]; melt temp 144 °C (condition 5)): Not detected
- 4.1 peak (CHA) ([5]; melt temp 149 °C (condition 6)): 100
- RRT 0.6 (degradant) ([5]; melt temp 149 °C (condition 6)): Not detected
- RRT 1.3 (degradant) ([5]; melt temp 149 °C (condition 6)): Not detected
- RRT 1.6 (degradant) ([5]; melt temp 149 °C (condition 6)): Not detected
- 4.1 peak (CHA) ([5]; melt temp 153 °C (condition 7)): 100
- RRT 0.6 (degradant) ([5]; melt temp 153 °C (condition 7)): Not detected
- RRT 1.3 (degradant) ([5]; melt temp 153 °C (condition 7)): Not detected
- RRT 1.6 (degradant) ([5]; melt temp 153 °C (condition 7)): Not detected
- 4.1 peak (CHA) ([5]; melt temp 161 °C (condition 8)): 100
- RRT 0.6 (degradant) ([5]; melt temp 161 °C (condition 8)): Not detected
- RRT 1.3 (degradant) ([5]; melt temp 161 °C (condition 8)): Not detected
- RRT 1.6 (degradant) ([5]; melt temp 161 °C (condition 8)): Not detected
SMILES: CC(=O)O.CC(=O)O.NC(=N\CCCCCC/N=C(N)/N=C(\N)Nc1ccc(Cl)cc1)/N=C(\N)Nc1ccc(Cl)cc1 [CHA, chlorhexidine diacetate]

SMILES: CCCCCCCCCCCC(=O)O.NC(=NCCCCCCN=C(N)N=C(N)Nc1ccc(Cl)cc1)N=C(N)Nc1ccc(Cl)cc1 [CHDD, chlorhexidine dodecanoate]
- 4.289 peak (CHDD) ([6]; melt temp 132 °C (condition 1)): 100
- RRT 0.6 (degradant) ([6]; melt temp 132 °C (condition 1)): Non-detected
- RRT 1.3 (degradant) ([6]; melt temp 132 °C (condition 1)): Not detected
- RRT 1.6 (degradant) ([6]; melt temp 132 °C (condition 1)): Not detected
- 4.289 peak (CHDD) ([6]; melt temp 136 °C (condition 2)): 100
- RRT 0.6 (degradant) ([6]; melt temp 136 °C (condition 2)): Non-detected
- RRT 1.3 (degradant) ([6]; melt temp 136 °C (condition 2)): Not detected
- RRT 1.6 (degradant) ([6]; melt temp 136 °C (condition 2)): Not detected
- thermal degradation on melt processing (HPLC, FIG. 4) ([6]; compounded in low melt temperature Tecoflex-93A, melt temperature 137 °C, 280 nm): did not degrade
- stable processing temperature limit ([6]; with polyurethanes): at least 136 °C

- processing temperature at which thermally stable ([4]; with vinyl polymers (PVC 60A & 85A)): ≤ 165 °C
- processing temperature at which thermally stable ([5]; with polyolefin thermoplastic elastomers (Versaflex CL30)): up to 161 °C
SMILES: [H]/N=C(\N/C(=N/[H])NCCCCCCNC(=N)NC(=N)Nc1ccc(Cl)cc1)Nc1ccc(Cl)cc1 [chlorhexidine]

Source: patent publication US20100234815A1, “STABLE MELT PROCESSABLE CHLORHEXIDINE COMPOSITIONS” (Teleflex Medical Incorporated, priority 2009, published 2010)
